For this data set, the target named is Albumin (Homo sapiens, UniProt P02768). Kind of data set: Binding constant against human serum albumin (HSA).
Chain of Albumin (P02768 whole entry): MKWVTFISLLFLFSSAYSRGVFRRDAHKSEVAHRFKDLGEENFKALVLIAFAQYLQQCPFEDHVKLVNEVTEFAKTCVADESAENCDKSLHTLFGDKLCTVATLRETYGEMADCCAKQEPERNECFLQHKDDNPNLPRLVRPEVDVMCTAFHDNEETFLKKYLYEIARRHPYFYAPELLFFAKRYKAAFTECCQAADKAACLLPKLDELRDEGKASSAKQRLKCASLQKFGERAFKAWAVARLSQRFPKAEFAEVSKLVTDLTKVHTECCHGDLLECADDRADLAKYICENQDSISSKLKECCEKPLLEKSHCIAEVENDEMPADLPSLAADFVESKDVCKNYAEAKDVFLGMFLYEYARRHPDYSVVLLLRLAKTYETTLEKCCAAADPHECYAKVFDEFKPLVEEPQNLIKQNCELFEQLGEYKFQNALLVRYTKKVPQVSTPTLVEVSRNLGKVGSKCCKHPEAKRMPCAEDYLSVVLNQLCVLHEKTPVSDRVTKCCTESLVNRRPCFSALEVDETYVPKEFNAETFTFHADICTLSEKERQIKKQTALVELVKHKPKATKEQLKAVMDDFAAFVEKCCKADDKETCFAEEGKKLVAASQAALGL

On to `CN(C)CCCN1c2ccccc2CCc2ccccc21` [IMIPRAMINE], for which the “Log K'” value worked out at 0.75. The figure for `C[C@H]1C[C@@H]2[C@H]([C@@H](O)C[C@@]3(C)[C@H]2CC[C@]3(O)C(=O)CO)[C@@]2(C)C=CC(=O)C=C12` [METHYLPREDNISOLONE] is 0.22. For the molecule `CN(C)c1cccc2c(S(=O)(=O)NCC(=O)O)cccc12` [DANSYLGLYCINE], the Log K' was -0.26. In the case of `CC(C)NCC(O)COc1cccc2ccccc12` (centres undefined) [PROPRANOLOL], the “Log K'” value turned out to be 0.28. Regarding `O=C(N[C@H](CO)[C@H](O)c1ccc([N+](=O)[O-])cc1)C(Cl)Cl` [CHLORAMPHENICOL], the “Log K'” value turned out to be 0.46. On to `CNCCCN1c2ccccc2CCc2ccccc21` [DESIPRAMINE], for which the “Log K'” value is listed as 0.61.

For `C[C@H]1O[C@@H](O[C@H]2[C@@H](O)C[C@H](O[C@H]3[C@@H](O)C[C@H](O[C@H]4CC[C@@]5(C)[C@H](CC[C@@H]6[C@@H]5CC[C@]5(C)[C@@H](C7=CC(=O)OC7)CC[C@]65O)C4)O[C@@H]3C)O[C@@H]2C)C[C@H](O)[C@@H]1O` [DIGITOXIN], the “Log K'” value was found to be 0.13.

For the molecule `C[C@]12C=CC(=O)C=C1CC[C@@H]1[C@@H]2[C@@H](O)C[C@@]2(C)[C@H]1CC[C@]2(O)C(=O)CO` [PREDNISOLONE], the “Log K'” value was 0.4. For the molecule `CNC(=C[N+](=O)[O-])NCCSCc1ccc(CN(C)C)o1` [RANITIDINE], the “Log K'” value is recorded as 0.1. `NS(=O)(=O)c1cc2c(cc1Cl)NCNS2(=O)=O` [HYDROCHLOROTHIAZIDE]: the “Log K'” value is 0.42.

Regarding `COCCc1ccc(OCC(O)CNC(C)C)cc1` (centres undefined) [METOPROLOL], the “Log K'” value turned out to be 0.29. In the case of `CN(C)CCCN1c2ccccc2Sc2ccccc21` [PROMAZINE], the “Log K'” value was 0.92. `Clc1cccc(Cl)c1N=C1NCCN1` [CLONIDINE]: the “Log K'” value was 0.13. The figure for `C[C@]12CC[C@H]3[C@@H](CCC4=CC(=O)CC[C@@]43C)[C@@H]1CC[C@@H]2O` [TESTOSTERONE] is 0.74; for `CC(=O)Oc1ccccc1C(=O)O` [ASPIRIN] it is 1.39. Take `Cn1c(=O)c2c(ncn2C)n(C)c1=O` [CAFFEINE]: the “Log K'” value is recorded as 0.92. `CN(Cc1cnc2nc(N)nc(N)c2n1)c1ccc(C(=O)N[C@@H](CCC(=O)O)C(=O)O)cc1` [METHOTREXATE]: the “Log K'” value came to 0.77. `C[C@H](CS)C(=O)N1CCC[C@H]1C(=O)O` [CAPTOPRIL]: the “Log K'” value was determined as 2.69.

Turning to `C[C@]12CC[C@@H]3c4ccc(O)cc4CC[C@H]3[C@@H]1CC[C@@H]2O` [ESTRADIOL], the “Log K'” value was determined as 0.68. As for `CC(=O)[C@H]1CC[C@H]2[C@@H]3CCC4=CC(=O)CC[C@]4(C)[C@H]3CC[C@]12C` [PROGESTERONE], the “Log K'” value amounted to 0.59. The figure for `O=C(CCCN1CC=C(n2c(=O)[nH]c3ccccc32)CC1)c1ccc(F)cc1` [DROPERIDOL] is 0.43; for `CN(C)[C@@H]1C(O)=C(C(N)=O)C(=O)[C@@]2(O)C(O)=C3C(=O)c4c(O)cccc4C[C@H]3C[C@@H]12` [SANCYCLINE] it is 0.21. With `CC(=O)O[C@H]1C[C@@]2(C)[C@@H](C[C@@H](O)[C@H]3[C@@]4(C)CC[C@@H](O)[C@@H](C)[C@@H]4CC[C@@]32C)/C1=C(\CCC=C(C)C)C(=O)O` [FUSIDIC ACID], the “Log K'” value was 0.33. Turning to `CC1(C)S[C@@H]2[C@H](NC(=O)[C@H](N)c3ccc(O)cc3)C(=O)N2[C@H]1C(=O)O` [AMOXICILLIN], the “Log K'” value amounted to 1.21.

Consider `CCN(CC)CCOC(=O)c1ccc(N)cc1` [PROCAINE], for which the “Log K'” value came to 0.19.

In the case of `Nc1ccc(S(=O)(=O)Nc2ccnn2-c2ccccc2)cc1` [SULFAPHENAZOLE], the “Log K'” value is reported as 0.21.

As for `CC(C)NCC(O)c1ccc(NS(C)(=O)=O)cc1` (centres undefined) [SOTALOL], the “Log K'” value is listed as 0.44. With `C=C[C@H]1C[N@@]2CC[C@H]1C[C@H]2[C@H](O)c1ccnc2ccc(OC)cc12` [QUININE], the “Log K'” value is recorded as 0.49.

On to `Cc1nccn1CC1CCc2c(c3ccccc3n2C)C1=O` (centres undefined) [ONDANSETRON], for which the “Log K'” value is reported as 0.37. Next, `CCC(C)n1ncn(-c2ccc(N3CCN(c4ccc(OC[C@H]5CO[C@](Cn6cncn6)(c6ccc(Cl)cc6Cl)O5)cc4)CC3)cc2)c1=O` (some centres undefined) [ITRACONAZOLE]: 1.04.

Regarding `CNS(=O)(=O)Cc1ccc2[nH]cc(CCN(C)C)c2c1`, the “Log K'” value is reported as 0.05. Regarding `CO/N=C(\C(=O)N[C@@H]1C(=O)N2C(C(=O)OC(C)OC(C)=O)=C(COC(N)=O)CS[C@H]12)c1ccco1` (some centres undefined) [CEFUROXIME AXETIL], the “Log K'” value is 0.56. Consider `CCCC(=O)Nc1ccc(OCC(O)CNC(C)C)c(C(C)=O)c1` (centres undefined) [ACEBUTOLOL], for which the “Log K'” value worked out at 0.21. As to `C[C@H]1COc2c(N3CCN(C)CC3)c(F)cc3c(=O)c(C(=O)O)cn1c23.C[C@H]1COc2c(N3CCN(C)CC3)c(F)cc3c(=O)c(C(=O)O)cn1c23.O` [LEVOFLOXACIN], the “Log K'” value was 0.14. `Nc1nc(=O)[nH]cc1F` [FLUCYTOSINE]: the “Log K'” value is on record as 1.11. For `CCCCNc1cc(C(=O)O)cc(S(N)(=O)=O)c1Oc1ccccc1` [BUMETANIDE], the “Log K'” value is reported as 0.03. In the case of `COc1cc2nc(N3CCN(C(=O)C4CCCO4)CC3)nc(N)c2cc1OC` (centres undefined) [TERAZOSIN], the “Log K'” value turned out to be 0.16. In the case of `Clc1ccccc1C(c1ccccc1)(c1ccccc1)n1ccnc1` [CLOTRIMAZOLE], the “Log K'” value stood at 1.34. Take `CCCCC1C(=O)N(c2ccccc2)N(c2ccc(O)cc2)C1=O` (centres undefined) [OXYPHENBUTAZONE ANHYDROUS]: the “Log K'” value was found to be 0.02. On to `CCn1cc(C(=O)O)c(=O)c2cc(F)c(N3CCNCC3)cc21` [NORFLOXACIN], for which the “Log K'” value came out at 0.14. The figure for `CC[C@@]1(O)C(=O)OCc2c1cc1n(c2=O)Cc2cc3ccccc3nc2-1` [CAMPTOTHECIN] is 0.08; for `CCOC(=O)C(C)(C)Oc1ccc(Cl)cc1` [CLOFIBRATE] it is 0.27; for `CO[C@@H]1[C@@H](OC(N)=O)[C@@H](O)[C@H](Oc2ccc3c(O)c(NC(=O)c4ccc(O)c(CC=C(C)C)c4)c(=O)oc3c2C)OC1(C)C` [NOVOBIOCIN] it is 0.35.

For the molecule `CC(C)NCC(O)COc1cccc2[nH]ccc12` (centres undefined) [PINDOLOL], the “Log K'” value came out at 0.13. Take `Cc1ccc(S(=O)(=O)NC(=O)NN2CCCCCC2)cc1` [TOLAZAMIDE]: the “Log K'” value worked out at 0.42. The figure for `C=C[C@H]1C[N@@]2CC[C@H]1C[C@@H]2[C@@H](O)c1ccnc2ccc(OC)cc12` [QUINIDINE] is 0.44; for `C[C@]12CCC(=O)C=C1CC[C@@H]1[C@@H]2[C@@H](O)C[C@@]2(C)[C@H]1CC[C@]2(O)C(=O)CO` [HYDROCORTISONE] it is 0.4; for `CC(NC(C)(C)C)C(=O)c1cccc(Cl)c1` (centres undefined) [BUPROPION] it is 0.05. Take `C=CCOc1ccccc1OCC(O)CNC(C)C` (centres undefined) [OXPRENOLOL]: the “Log K'” value is on record as 0.15. The figure for `N[C@@H](Cc1c[nH]c2ccccc12)C(=O)O` [TRYPTOPHAN] is 0.78; for `CN(C)c1ccc(O)c2c1C[C@H]1C[C@H]3[C@H](N(C)C)C(O)=C(C(N)=O)C(=O)[C@@]3(O)C(O)=C1C2=O` [MINOCYCLINE] it is 0.21; for `CO/N=C(\C(=O)N[C@@H]1C(=O)N2C(C(=O)O)=C(COC(N)=O)CS[C@H]12)c1ccco1` [CEFUROXIME] it is 1.33.

As for `C=CCc1ccccc1OCC(O)CNC(C)C` (centres undefined) [ALPRENOLOL], the “Log K'” value amounted to 0.04. For the molecule `CC(=O)Nc1ccc(O)cc1` [ACETAMINOPHEN], the “Log K'” value worked out at 0.81. As to `CC1(C)S[C@@H]2[C@H](NC(=O)COc3ccccc3)C(=O)N2[C@H]1C(=O)O` [PENICILLIN V], the “Log K'” value came out at 0.69.

`COc1cc2nc(N3CCN(C(=O)c4ccco4)CC3)nc(N)c2cc1OC` [PRAZOSIN]: the “Log K'” value is given as 0.06.

As to `Cc1ccc(/C(=C\CN2CCCC2)c2cccc(/C=C/C(=O)O)n2)cc1` [ACRIVASTINE], the “Log K'” value stood at 0.02. For `CCCNC(=O)NS(=O)(=O)c1ccc(Cl)cc1` [CHLORPROPAMIDE], the “Log K'” value is 0.44. Turning to `COc1ccc(Cl)cc1C(=O)NCCc1ccc(S(=O)(=O)NC(=O)NC2CCCCC2)cc1` [GLYBURIDE], the “Log K'” value is 0.68. On to `CN/C(=N/CCSCc1nc[nH]c1C)NC#N` [CIMETIDINE], for which the “Log K'” value was determined as 0.44. As to `CN(C)CCCN1c2ccccc2Sc2ccc(C(F)(F)F)cc21` [TRIFLUPROMAZINE], the “Log K'” value is on record as 1.05. As for `CN(C)[C@@H]1C(O)=C(C(N)=O)C(=O)[C@@]2(O)C(O)=C3C(=O)c4c(O)cccc4[C@@](C)(O)[C@H]3C[C@@H]12` [TETRACYCLINE], the “Log K'” value is 0.08. Take `CCCCNc1ccc(C(=O)OCCN(C)C)cc1` [TETRACAINE]: the “Log K'” value is 0.32.

Consider `CC(C)(C)NC[C@H](O)COc1nsnc1N1CCOCC1` [TIMOLOL], for which the “Log K'” value is given as 0.33. Turning to `O=c1c2ccccc2[se]n1-c1ccccc1` [EBSELEN], the “Log K'” value amounted to 1.04. As for `CC(CCc1ccccc1)NCC(O)c1ccc(O)c(C(N)=O)c1` (centres undefined) [LABETALOL], the “Log K'” value turned out to be 0.14. Consider `Nc1nnc(-c2cccc(Cl)c2Cl)c(N)n1` [LAMOTRIGINE], for which the “Log K'” value is given as 0.13.

As to `CN(C/C=C/C#CC(C)(C)C)Cc1cccc2ccccc12` [TERBINAFINE], the “Log K'” value is given as 1.17. Next, `O=C(O)c1cc(=O)c2c(OCC(O)COc3cccc4oc(C(=O)O)cc(=O)c34)cccc2o1` [CROMOLYN]: 1.07. Regarding `CC(C)(C)NCC(O)COc1cccc2c1CC(O)C(O)C2` (centres undefined) [NADOLOL], the “Log K'” value turned out to be 0.4. For the molecule `C[C@H]1c2cccc(O)c2C(=O)C2=C(O)[C@]3(O)C(=O)C(C(N)=O)=C(O)[C@@H](N(C)C)[C@@H]3[C@@H](O)[C@@H]21.O` [DOXYCYCLINE], the “Log K'” value amounted to 0.01.

On to `COc1cc(Cc2cnc(N)nc2N)cc(OC)c1OC` [TRIMETHOPRIM], for which the “Log K'” value amounted to 0.26. In the case of `CC(=O)N1CCN(c2ccc(OC[C@H]3CO[C@](Cn4ccnc4)(c4ccc(Cl)cc4Cl)O3)cc2)CC1` [KETOCONAZOLE], the “Log K'” value worked out at 0.84. As for `Cc1cc(=O)n(-c2ccccc2)n1C` [ANTIPYRINE], the “Log K'” value came out at 0.69.

(Values after ChEMBL document CHEMBL1134302, “Cheminformatic models to predict binding affinities to human serum albumin” (J Med Chem, 2001).)
